Source: ChEMBL document CHEMBL3886628, “Substituted 3-(biphenyl-3-yl)-4-hydroxy-8-methoxy-1-azaspiro[4.5]dec-3-en-2-one” (2016)
Values joined by “and” are separate entries in the source; they are usually repeats but may differ in a detail not shown here. Equal entries are not always repeated.

Legend:
Acetyl-CoA carboxylase 1 = Acetyl-CoA carboxylase 1 (Homo sapiens, UniProt Q13085); test: Typical concentrations were in the range of 1.75 μl.
Acetyl-CoA carboxylase 2 = Acetyl-CoA carboxylase 2 (Homo sapiens, UniProt O00763)
Chain of Acetyl-CoA carboxylase 2 (O00763 whole entry): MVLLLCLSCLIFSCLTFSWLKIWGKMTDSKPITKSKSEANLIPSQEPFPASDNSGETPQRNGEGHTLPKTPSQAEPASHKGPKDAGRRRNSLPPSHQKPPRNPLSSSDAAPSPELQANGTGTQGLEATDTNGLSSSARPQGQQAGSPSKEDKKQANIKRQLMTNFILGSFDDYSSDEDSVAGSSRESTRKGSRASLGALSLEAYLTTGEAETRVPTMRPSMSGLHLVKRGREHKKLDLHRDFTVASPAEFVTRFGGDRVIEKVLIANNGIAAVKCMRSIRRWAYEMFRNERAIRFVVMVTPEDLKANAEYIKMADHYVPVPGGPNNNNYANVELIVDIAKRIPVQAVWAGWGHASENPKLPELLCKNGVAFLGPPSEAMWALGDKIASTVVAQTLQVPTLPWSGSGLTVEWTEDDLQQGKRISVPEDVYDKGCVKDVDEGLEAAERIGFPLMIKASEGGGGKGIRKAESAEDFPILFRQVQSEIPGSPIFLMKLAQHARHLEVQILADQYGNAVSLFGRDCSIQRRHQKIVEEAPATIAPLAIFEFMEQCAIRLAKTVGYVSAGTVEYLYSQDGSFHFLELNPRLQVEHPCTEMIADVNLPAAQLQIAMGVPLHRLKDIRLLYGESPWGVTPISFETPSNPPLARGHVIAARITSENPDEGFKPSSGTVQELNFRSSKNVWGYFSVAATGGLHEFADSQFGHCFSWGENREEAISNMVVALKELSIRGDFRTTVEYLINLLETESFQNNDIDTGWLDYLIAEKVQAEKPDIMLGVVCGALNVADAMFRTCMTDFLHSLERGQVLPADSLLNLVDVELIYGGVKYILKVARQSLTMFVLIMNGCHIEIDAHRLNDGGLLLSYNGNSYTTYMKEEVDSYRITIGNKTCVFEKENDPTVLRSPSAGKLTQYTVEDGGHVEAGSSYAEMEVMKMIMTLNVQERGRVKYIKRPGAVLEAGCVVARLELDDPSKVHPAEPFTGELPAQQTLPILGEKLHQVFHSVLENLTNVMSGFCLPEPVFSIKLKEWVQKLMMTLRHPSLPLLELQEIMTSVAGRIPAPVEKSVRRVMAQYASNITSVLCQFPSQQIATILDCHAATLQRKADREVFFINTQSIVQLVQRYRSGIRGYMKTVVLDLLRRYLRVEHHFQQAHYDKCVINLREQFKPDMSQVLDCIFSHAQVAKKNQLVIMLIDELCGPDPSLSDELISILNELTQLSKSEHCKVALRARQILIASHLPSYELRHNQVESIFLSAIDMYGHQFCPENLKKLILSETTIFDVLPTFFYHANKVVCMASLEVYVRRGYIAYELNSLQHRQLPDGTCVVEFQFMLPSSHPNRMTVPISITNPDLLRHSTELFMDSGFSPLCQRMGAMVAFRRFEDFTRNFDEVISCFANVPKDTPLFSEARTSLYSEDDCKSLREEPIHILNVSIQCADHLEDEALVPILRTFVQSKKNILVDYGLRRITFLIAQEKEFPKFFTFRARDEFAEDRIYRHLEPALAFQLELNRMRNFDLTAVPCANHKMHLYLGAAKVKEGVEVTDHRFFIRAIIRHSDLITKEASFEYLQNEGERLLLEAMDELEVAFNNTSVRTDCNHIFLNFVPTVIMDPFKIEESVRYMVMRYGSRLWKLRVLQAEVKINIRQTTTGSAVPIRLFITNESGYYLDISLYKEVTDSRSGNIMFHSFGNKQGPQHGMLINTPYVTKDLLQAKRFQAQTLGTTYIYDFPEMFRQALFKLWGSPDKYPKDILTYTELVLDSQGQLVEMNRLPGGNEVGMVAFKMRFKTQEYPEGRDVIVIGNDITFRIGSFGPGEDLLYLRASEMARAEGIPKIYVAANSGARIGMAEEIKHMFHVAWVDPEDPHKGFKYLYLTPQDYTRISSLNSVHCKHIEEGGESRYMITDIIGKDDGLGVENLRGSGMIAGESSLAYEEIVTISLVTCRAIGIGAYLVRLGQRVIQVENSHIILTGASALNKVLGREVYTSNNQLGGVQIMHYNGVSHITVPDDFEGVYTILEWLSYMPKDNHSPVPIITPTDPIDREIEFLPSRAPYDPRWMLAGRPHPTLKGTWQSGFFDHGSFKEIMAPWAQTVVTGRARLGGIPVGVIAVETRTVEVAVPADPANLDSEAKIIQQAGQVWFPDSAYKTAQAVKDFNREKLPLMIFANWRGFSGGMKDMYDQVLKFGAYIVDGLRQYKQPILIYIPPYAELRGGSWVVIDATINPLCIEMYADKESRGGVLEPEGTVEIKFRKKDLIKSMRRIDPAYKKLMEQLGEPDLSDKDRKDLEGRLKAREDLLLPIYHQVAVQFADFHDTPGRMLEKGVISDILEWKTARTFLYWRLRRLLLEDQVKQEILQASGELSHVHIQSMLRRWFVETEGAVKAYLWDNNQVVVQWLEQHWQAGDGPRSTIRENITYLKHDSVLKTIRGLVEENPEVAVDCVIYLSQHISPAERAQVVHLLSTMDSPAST

IC50 (Acetyl-CoA carboxylase 1) | IC50 (Acetyl-CoA carboxylase 2) | Compound
231 nM and 244 nM and 44 nM and 67 nM and 78 nM and 162 nM and 186 nM and 99 nM | – | CO[C@]1(C(F)(F)F)CC[C@]2(CC1)NC(=O)C(c1cc(-c3ccc(Cl)cc3)ccc1C)=C2O
92 nM and 119 nM | 2760 nM and 1690 nM and 2010 nM | CO[C@]1(C(F)(F)F)CC[C@]2(CC1)NC(=O)C(c1cc(-c3ccc(Cl)c(F)c3)ccc1C)=C2O
104 nM and 133 nM and 84 nM | – | COC[C@]1(OC)CC[C@@]2(CC1)NC(=O)C(c1cc(-c3ccc(Cl)c(F)c3)ccc1C)=C2O
